The source of these data is US10259817B2, “Crystal (6S,9aS)-N-benzyl-8-({6-[3-(4-ethylpiperazin-1-yl)azetidin-1-yl]pyridin-2-yl}methyl)-6-(2-fluoro-4-hydroxybenzyl)-4,7-dioxo-2-(prop-2-en-1-yl)hexahydro-2H-pyrazino[2,1-c][1,2,4]triazine-1(6H)-carboxamide” (Eisai R&D Management Co., Ltd., priority 2015, dated 2019).

In assay [1] the test system is human chronic myologenous leukemia cell strain K562. To be noted: day 28; Dasatinib 5 mg/kg alone, oral qd 5 days + 2-day holiday, two cycles.
Description: A preparation of a human chronic myologenous leukemia cell strain K562 (which had been cultured in a RPMI-1640 liquid culture medium supplemented with 10% FBS and penicillin/streptomycin) which was so prepared with PBS (Wako Pure Chemical Industries, Ltd.; Cat#045-29795) that the density became 2×10^8 cells/mL was mixed with [sequence] (BD Biosicence, Cat#: 354234) at a mixing ratio of 1:1, thereby preparing a cell suspension having a density of 1×10^8 cells/mL. The resulting cell suspension was transplanted subcutaneously into the right flank of each of six-week-old nude mice (CAnN.Cg-Foxn1nu/CrlCrlj, female, Charles River Laboratories Japan) at a dose of 100 μL. Seven days after the transplantation, the shorter diameter and the longer diameter of a tumor were measured using an electronic digital caliper (Digimatic™ Caliper, Mitutoyo Corporation) to calculate the tumor volume in accordance with the following equation. Tumor volume (mm^3)=(longer diameter (mm))×(shorter diameter (mm))×(shorter diameter (mm))/2
The mice were grouped in such a manner that the average value of the tumor volumes in mice in a group, which were determined on the basis of the tumor volume on the first day of the administration. […]
The subject of another assay is Wnt signal. Kind of assay: Detection of Wnt signal (TOPglow luciferase reporter, LiCl-stimulated HEK293 clone). The format is cell-based. The following applies: Homo sapiens; HEK293 pNeo-TOP clone, LiCl added, luciferase emission; read-out: IC50, concentration required for inhibiting the Wnt signal activity by 50%. In general terms: Reporter assays use an easily measured gene product as a stand-in for the process of interest.

Description for Wnt signal: The plasmid pNeo-TOP was introduced into human fetus-derived renal cell strain HEK293, then a compound was selected using G418, and then a cell clone strain was established by a limiting dilution method. The cell clone strain was subjected to a Wnt signal detection test.
The cell clone strain was subcultured in a D-MEM glucose-rich culture medium (Wako Pure Chemical Industries, Ltd.) containing 10% FBS, and cells in a growth phase were used in the test. Cells were collected using trypsin-EDTA, the number of the cells was counted, and then the cells were suspended in a D-MEM glucose-rich culture medium containing 10% FBS so that the number of cells became 2×10^5 cells/mL. The cell suspension was added to a 96-well cell culture plate (Greiner Bio-One Co., Ltd., product number: 655083) in an amount of 0.1 mL/well and then cultured overnight in a 5% CO2 incubator (37° C.). After the culturing, a substance to be tested, which was dissolved in DMSO, was diluted with a D-MEM glucose-rich culture medium containing 10% of FBS and 80 mM of LiCl to produce a sample solution. The sample solution (0.1 mL) was added to each well and then cultured in a 5% CO2 incubator (37° C.) overnight. […] The plate was put on a plate mixer for several seconds, and then the emission of light from each well was measured using a EnVision™ Multilabel plate reader (PerkinElmer Co., Ltd.). […]

In the case of `Cc1nc(Nc2ncc(C(=O)Nc3c(C)cccc3Cl)s2)cc(N2CCN(CCO)CC2)n1` [Dasatinib], the “the number of individuals in which a tumor was not observed by visual judgment/total number of administered individuals” value in assay [1] is on record as 0/9.

For the compound `C=CCN1CC(=O)N2[C@@H](Cc3ccc(O)cc3F)C(=O)N(Cc3cccc(N4CC(N5CCN(CC)CC5)C4)n3)C[C@@H]2N1C(=O)NCc1ccccc1` [Example 1, (6S,9aS)-N-benzyl-8-({6-[3-(4-ethylpiperazin-1-yl)azetidin-1-yl]pyridin-2-yl}methyl)-6-(2-fluoro-4-hydroxybenzyl)-4,7-dioxo-2-(prop-2-en-1-yl)hexahydro-2H-pyrazino[2,1-c][1,2,4]triazine-1(6H)-carboxamide], the IC50 in the assay with Wnt signal was determined as 60 nM.
